From ChEMBL document CHEMBL4804284
Active and inactive are the calls of the source. No cut-off for these calls is given here.

Columns and labels:
[1] = molecular target: Tyrosine-protein kinase Fyn (Homo sapiens) (UniProt P06241); assay: Inhibition of DNA-tagged human FYN assessed as percent of control at 50000 nM by qPCR analysis relative to control; set-up: scale not given: the % may be the effect or the level left
[2] = molecular target: Tyrosine-protein kinase FRK (Homo sapiens) (UniProt P42685); assay: Inhibition of DNA-tagged human FRK assessed as percent of control at 50000 nM by qPCR analysis relative to control; set-up: scale not given: the % may be the effect or the level left
[3] = molecular target: Fibroblast growth factor receptor 1 (Homo sapiens) (UniProt P11362); assay: Inhibition of DNA-tagged human FGFR1 assessed as percent of control at 50000 nM by qPCR analysis relative to control; set-up: scale not given: the % may be the effect or the level left
[4] = molecular target: Ephrin type-A receptor 5 (Homo sapiens) (UniProt P54756); assay: Inhibition of DNA-tagged human EPHA5 assessed as percent of control at 50000 nM by qPCR analysis relative to control; set-up: scale not given: the % may be the effect or the level left
[5] = tested on: Epidermal growth factor receptor (Homo sapiens), P00533 [UNDEFINED MUTATION]; assay: Inhibition of DNA-tagged human EGFR L747-T751del/Sins double mutant assessed as percent of control at 50000 nM by qPCR analysis relative to control; set-up: scale not given: the % may be the effect or the level left
[6] = tested on: Epidermal growth factor receptor (Homo sapiens), P00533 [UNDEFINED MUTATION]; assay: Inhibition of DNA-tagged human EGFR E746-A750del mutant assessed as percent of control at 50000 nM by qPCR analysis relative to control; set-up: scale not given: the % may be the effect or the level left
[7] = molecular target: Casein kinase I isoform epsilon (Homo sapiens) (UniProt P49674); assay: Inhibition of DNA-tagged human CSNK1E assessed as percent of control at 50000 nM by qPCR analysis relative to control; set-up: scale not given: the % may be the effect or the level left
[8] = molecular target: CDK4/Cyclin D3 (Homo sapiens) (UniProt P11802+P30281); assay: Inhibition of DNA-tagged human CDK4/cyclin D3 assessed as percent of control at 50000 nM by qPCR analysis relative to control; assay type: protein-complex assay; set-up: scale not given: the % may be the effect or the level left
[9] = molecular target: Tyrosine-protein kinase BTK (Homo sapiens) (UniProt Q06187); assay: Inhibition of DNA-tagged human BTK assessed as percent of control at 50000 nM by qPCR analysis relative to control; set-up: scale not given: the % may be the effect or the level left
[10] = molecular target: Tyrosine-protein kinase ABL1 (Homo sapiens) (UniProt P00519); assay: Inhibition of DNA-tagged non-phosphorylated human ABL1 assessed as percent of control at 50000 nM by qPCR analysis relative to control; set-up: scale not given: the % may be the effect or the level left
[11] = tested on: Tyrosine-protein kinase ABL1 (Homo sapiens), P00519 [T315I]; assay: Inhibition of DNA-tagged non-phosphorylated human ABL1 T315I mutant assessed as percent of control at 50000 nM by qPCR analysis relative to control; set-up: scale not given: the % may be the effect or the level left
[12] = tested on: Tyrosine-protein kinase ABL1 (Homo sapiens), P00519 [Q252H]; assay: Inhibition of DNA-tagged phosphorylated human ABL1 Q252H mutant assessed as percent of control at 50000 nM by qPCR analysis relative to control; set-up: scale not given: the % may be the effect or the level left
[13] = tested on: Tyrosine-protein kinase ABL1 (Homo sapiens), P00519 [UNDEFINED MUTATION]; assay: Inhibition of DNA-tagged phosphorylated human ABL1 […] mutant assessed as percent of control at 50000 nM by qPCR analysis relative to control; set-up: scale not given: the % may be the effect or the level left
KG-1 = assay: Cytotoxicity against human KG-1 cells at 0.1-100 uM assessed as decrease in cell viability relative to control; assay type: functional, cell-based
HEL = assay: Cytotoxicity against human HEL cells at 0.1-100 uM assessed as decrease in cell viability relative to control; assay type: functional, cell-based
[14] = molecular target: Serine/threonine-protein kinase LATS1 (Homo sapiens) (UniProt O95835); assay: Inhibition of DNA-tagged human LATS1 assessed as percent of control at 50000 nM by qPCR analysis relative to control; set-up: scale not given: the % may be the effect or the level left
[15] = molecular target: Macrophage-stimulating protein receptor (Homo sapiens) (UniProt Q04912); assay: Inhibition of DNA-tagged human MST1R assessed as percent of control at 50000 nM by qPCR analysis relative to control; set-up: scale not given: the % may be the effect or the level left
[16] = molecular target: Myosin-IIIb (Homo sapiens) (UniProt Q8WXR4); assay: Inhibition of DNA-tagged human MYO3B assessed as percent of control at 50000 nM by qPCR analysis relative to control; set-up: scale not given: the % may be the effect or the level left
[17] = molecular target: Serine/threonine-protein kinase 38-like (Homo sapiens) (UniProt Q9Y2H1); assay: Inhibition of DNA-tagged human NDR2 assessed as percent of control at 50000 nM by qPCR analysis relative to control; set-up: scale not given: the % may be the effect or the level left
[18] = molecular target: Serine/threonine-protein kinase Nek7 (Homo sapiens) (UniProt Q8TDX7); assay: Inhibition of DNA-tagged human NEK7 assessed as percent of control at 50000 nM by qPCR analysis relative to control; set-up: scale not given: the % may be the effect or the level left
[19] = molecular target: Phosphorylase b kinase gamma catalytic chain, liver/testis isoform (Homo sapiens) (UniProt P15735); assay: Inhibition of DNA-tagged human PHKG2 assessed as percent of control at 50000 nM by qPCR analysis relative to control; set-up: scale not given: the % may be the effect or the level left
[20] = molecular target: Serine/threonine-protein kinase D1 (Homo sapiens) (UniProt Q15139); assay: Inhibition of DNA-tagged human PRKD1 assessed as percent of control at 50000 nM by qPCR analysis relative to control; set-up: scale not given: the % may be the effect or the level left
[21] = molecular target: Interferon-induced, double-stranded RNA-activated protein kinase (Homo sapiens) (UniProt P19525); assay: Inhibition of DNA-tagged human PRKR assessed as percent of control at 50000 nM by qPCR analysis relative to control; set-up: scale not given: the % may be the effect or the level left
[22] = molecular target: cAMP-dependent protein kinase catalytic subunit PRKX (Homo sapiens) (UniProt P51817); assay: Inhibition of DNA-tagged human PRKX assessed as percent of control at 50000 nM by qPCR analysis relative to control; set-up: scale not given: the % may be the effect or the level left
[23] = molecular target: Ribosomal protein S6 kinase alpha-5 (Homo sapiens) (UniProt O75582); assay: Inhibition of DNA-tagged human N-terminal RPS6KA5 kinase domain 1 assessed as percent of control at 50000 nM by qPCR analysis relative to control; set-up: scale not given: the % may be the effect or the level left
[24] = molecular target: Ribosomal protein S6 kinase alpha-2 (Homo sapiens) (UniProt Q15349); assay: Inhibition of DNA-tagged human N-terminal RSK3 kinase domain 1 assessed as percent of control at 50000 nM by qPCR analysis relative to control; set-up: scale not given: the % may be the effect or the level left
[25] = molecular target: Ribosomal protein S6 kinase beta-1 (Homo sapiens) (UniProt P23443); assay: Inhibition of DNA-tagged human S6K1 assessed as percent of control at 50000 nM by qPCR analysis relative to control; set-up: scale not given: the % may be the effect or the level left
[26] = molecular target: Proto-oncogene tyrosine-protein kinase Src (Homo sapiens) (UniProt P12931); assay: Inhibition of DNA-tagged human SRC assessed as percent of control at 50000 nM by qPCR analysis relative to control; set-up: scale not given: the % may be the effect or the level left
[27] = molecular target: SRSF protein kinase 1 (Homo sapiens) (UniProt Q96SB4); assay: Inhibition of DNA-tagged human SRPK1 assessed as percent of control at 50000 nM by qPCR analysis relative to control; set-up: scale not given: the % may be the effect or the level left
[28] = molecular target: Non-receptor tyrosine-protein kinase TYK2 (Homo sapiens) (UniProt P29597); assay: Inhibition of DNA-tagged human TYK2 JH2 pseudokinase domain assessed as percent of control at 50000 nM by qPCR analysis relative to control; set-up: scale not given: the % may be the effect or the level left

Epidermal growth factor receptor (Homo sapiens), P00533 [UNDEFINED MUTATION], sequence (P00533 whole entry, looked up, stated change not applied, canonical isoform): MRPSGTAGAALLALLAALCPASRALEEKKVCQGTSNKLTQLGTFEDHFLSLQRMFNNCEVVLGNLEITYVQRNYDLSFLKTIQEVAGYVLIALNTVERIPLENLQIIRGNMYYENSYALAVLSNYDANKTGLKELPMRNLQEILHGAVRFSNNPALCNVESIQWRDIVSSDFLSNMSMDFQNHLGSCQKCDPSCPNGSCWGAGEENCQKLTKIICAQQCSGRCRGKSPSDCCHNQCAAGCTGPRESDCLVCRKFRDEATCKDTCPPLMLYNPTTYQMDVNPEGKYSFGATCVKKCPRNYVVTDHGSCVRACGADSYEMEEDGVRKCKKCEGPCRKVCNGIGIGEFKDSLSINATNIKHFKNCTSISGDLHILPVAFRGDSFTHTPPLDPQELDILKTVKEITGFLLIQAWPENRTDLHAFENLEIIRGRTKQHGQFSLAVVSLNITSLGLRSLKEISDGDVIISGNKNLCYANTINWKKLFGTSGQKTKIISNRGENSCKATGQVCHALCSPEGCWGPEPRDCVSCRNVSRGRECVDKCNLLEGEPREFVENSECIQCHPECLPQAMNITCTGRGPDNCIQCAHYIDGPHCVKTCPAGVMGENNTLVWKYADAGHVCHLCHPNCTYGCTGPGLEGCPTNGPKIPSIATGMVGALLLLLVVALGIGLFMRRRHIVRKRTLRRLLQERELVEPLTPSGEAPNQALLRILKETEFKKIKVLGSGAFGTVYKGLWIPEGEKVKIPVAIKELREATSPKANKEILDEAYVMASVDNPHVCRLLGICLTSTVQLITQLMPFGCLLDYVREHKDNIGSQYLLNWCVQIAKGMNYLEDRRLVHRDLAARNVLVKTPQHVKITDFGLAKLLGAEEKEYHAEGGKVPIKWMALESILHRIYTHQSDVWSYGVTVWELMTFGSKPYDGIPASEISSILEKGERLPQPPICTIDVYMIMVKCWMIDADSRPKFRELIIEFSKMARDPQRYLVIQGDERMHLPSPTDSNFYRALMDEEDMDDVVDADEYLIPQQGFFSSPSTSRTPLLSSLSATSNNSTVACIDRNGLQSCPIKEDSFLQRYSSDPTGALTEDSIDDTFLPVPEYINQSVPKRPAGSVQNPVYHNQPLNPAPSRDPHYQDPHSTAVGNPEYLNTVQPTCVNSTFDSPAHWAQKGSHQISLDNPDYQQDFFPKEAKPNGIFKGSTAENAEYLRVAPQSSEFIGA
Ribosomal protein S6 kinase alpha-5 (Homo sapiens), sequence (O75582 whole entry, looked up, the tested form may be a part): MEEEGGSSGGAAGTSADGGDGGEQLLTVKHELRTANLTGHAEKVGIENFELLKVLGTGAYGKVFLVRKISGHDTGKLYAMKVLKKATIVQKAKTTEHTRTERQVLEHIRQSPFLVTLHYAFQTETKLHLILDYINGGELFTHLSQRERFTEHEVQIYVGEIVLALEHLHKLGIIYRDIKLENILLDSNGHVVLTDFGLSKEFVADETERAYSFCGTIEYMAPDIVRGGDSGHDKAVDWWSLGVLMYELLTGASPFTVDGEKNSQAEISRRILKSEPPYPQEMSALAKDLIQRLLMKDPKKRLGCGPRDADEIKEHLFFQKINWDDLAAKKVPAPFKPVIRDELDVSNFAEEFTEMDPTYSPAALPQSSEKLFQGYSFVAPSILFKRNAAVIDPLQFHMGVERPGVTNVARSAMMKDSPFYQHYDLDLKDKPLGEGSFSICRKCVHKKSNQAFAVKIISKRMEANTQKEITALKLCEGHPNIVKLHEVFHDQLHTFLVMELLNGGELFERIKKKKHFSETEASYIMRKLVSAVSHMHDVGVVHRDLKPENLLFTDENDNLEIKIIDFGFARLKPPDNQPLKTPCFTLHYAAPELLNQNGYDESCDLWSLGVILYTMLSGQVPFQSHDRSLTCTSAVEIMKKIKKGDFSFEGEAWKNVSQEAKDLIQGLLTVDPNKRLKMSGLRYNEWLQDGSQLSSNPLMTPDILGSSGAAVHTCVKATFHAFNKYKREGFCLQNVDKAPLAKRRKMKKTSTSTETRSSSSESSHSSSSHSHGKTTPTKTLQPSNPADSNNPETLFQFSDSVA
cAMP-dependent protein kinase catalytic subunit PRKX (Homo sapiens), sequence (P51817 whole entry, the tested form may be a part): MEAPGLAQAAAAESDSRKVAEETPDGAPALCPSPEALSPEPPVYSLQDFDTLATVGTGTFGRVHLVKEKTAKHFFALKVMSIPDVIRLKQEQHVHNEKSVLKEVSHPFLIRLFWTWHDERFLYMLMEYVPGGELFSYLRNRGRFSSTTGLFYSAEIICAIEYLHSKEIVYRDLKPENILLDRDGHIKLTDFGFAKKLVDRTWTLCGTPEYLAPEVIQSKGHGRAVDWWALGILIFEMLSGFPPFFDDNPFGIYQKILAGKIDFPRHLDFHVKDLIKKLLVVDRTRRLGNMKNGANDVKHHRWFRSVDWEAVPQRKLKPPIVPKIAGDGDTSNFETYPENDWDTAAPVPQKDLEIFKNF
Ephrin type-A receptor 5 (Homo sapiens), sequence (P54756 whole entry): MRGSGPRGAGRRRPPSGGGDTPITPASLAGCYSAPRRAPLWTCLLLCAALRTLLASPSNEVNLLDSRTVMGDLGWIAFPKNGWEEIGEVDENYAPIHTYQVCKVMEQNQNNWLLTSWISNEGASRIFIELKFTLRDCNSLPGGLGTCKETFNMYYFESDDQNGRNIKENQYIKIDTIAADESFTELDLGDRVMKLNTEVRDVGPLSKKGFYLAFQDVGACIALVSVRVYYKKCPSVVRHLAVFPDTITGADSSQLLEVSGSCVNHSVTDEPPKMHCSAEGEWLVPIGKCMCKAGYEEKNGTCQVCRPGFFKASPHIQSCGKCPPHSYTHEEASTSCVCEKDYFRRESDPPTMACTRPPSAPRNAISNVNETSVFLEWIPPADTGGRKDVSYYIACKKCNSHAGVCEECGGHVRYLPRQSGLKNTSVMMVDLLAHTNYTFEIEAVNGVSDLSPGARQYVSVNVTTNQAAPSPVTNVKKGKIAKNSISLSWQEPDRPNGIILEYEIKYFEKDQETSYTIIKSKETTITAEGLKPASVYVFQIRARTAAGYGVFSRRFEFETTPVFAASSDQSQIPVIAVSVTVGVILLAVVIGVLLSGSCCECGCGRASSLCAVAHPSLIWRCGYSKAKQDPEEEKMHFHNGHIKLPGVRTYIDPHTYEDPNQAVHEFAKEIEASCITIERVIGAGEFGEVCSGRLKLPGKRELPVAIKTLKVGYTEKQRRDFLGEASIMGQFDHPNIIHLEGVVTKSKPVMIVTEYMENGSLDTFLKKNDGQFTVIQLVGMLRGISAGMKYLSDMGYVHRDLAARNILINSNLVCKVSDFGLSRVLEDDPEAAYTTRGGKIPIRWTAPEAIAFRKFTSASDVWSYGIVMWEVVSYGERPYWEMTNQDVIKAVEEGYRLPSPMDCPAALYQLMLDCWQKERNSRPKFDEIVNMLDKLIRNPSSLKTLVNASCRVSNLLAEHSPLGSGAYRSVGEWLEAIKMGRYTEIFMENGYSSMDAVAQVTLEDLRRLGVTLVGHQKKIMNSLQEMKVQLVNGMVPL
SRSF protein kinase 1 (Homo sapiens), sequence (Q96SB4 whole entry, the tested form may be a part): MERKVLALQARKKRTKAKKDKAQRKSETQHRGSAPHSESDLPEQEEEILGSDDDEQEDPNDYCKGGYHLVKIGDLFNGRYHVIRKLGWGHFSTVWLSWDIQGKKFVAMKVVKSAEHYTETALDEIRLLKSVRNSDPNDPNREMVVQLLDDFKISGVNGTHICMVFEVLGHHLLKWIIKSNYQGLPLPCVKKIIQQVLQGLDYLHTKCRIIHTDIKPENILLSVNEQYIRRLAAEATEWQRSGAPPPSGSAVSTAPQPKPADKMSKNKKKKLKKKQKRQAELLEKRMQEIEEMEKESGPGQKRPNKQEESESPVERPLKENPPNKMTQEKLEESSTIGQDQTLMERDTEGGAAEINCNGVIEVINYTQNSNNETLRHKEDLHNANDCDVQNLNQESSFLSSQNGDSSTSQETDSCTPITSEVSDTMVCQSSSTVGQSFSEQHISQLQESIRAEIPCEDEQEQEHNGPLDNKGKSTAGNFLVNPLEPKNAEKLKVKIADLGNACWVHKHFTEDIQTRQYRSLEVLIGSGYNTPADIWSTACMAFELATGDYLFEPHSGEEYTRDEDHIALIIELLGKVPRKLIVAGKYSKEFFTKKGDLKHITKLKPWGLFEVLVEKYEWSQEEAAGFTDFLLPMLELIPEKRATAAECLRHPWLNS
Ribosomal protein S6 kinase beta-1 (Homo sapiens), sequence (P23443 whole entry, looked up): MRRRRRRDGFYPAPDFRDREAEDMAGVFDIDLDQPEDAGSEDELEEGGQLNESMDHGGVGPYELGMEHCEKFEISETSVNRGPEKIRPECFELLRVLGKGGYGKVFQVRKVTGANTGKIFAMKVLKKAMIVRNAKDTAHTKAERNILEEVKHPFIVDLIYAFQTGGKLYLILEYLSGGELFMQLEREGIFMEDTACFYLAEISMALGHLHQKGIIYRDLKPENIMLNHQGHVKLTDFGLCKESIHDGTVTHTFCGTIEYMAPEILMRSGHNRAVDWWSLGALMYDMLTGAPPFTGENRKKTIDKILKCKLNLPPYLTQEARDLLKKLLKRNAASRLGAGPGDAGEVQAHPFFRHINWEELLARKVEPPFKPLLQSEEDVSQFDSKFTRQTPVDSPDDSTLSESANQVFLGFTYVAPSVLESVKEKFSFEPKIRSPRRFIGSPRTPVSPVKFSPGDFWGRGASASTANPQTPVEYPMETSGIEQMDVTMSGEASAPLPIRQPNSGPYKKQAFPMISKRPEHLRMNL
Casein kinase I isoform epsilon (Homo sapiens), sequence (P49674 whole entry, looked up, canonical isoform): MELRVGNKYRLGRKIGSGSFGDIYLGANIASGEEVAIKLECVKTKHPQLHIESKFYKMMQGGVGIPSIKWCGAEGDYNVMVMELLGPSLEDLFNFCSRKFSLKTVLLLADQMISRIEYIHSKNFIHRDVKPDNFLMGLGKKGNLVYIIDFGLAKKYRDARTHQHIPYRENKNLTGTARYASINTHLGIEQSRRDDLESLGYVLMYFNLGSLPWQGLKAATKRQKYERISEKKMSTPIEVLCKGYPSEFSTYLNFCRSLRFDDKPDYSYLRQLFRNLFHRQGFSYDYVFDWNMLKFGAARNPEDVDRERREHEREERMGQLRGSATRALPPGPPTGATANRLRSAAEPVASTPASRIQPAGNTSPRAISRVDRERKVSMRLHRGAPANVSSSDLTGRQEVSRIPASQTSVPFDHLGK

`CN1C(=O)/C(=C2/C(=O)Nc3ccccc32)c2ccccc21` showed an Activity [1] of 100%, an Activity [2] of 96% and an Activity [3] of 100%. For the same molecule, the Activity [4] was 96%, the Activity [5] was 87% and the Activity [6] was 83%. The Activity [7] was 91%, the Activity [8] was 100% and the Activity [9] was 82%. The Activity [10] was 100%, the Activity [11] was 94% and the Activity [12] was 100%. The Activity [13] was 94%, the Activity (KG-1) was “Active” and the Activity (HEL) was “Active”. The Activity [14] was 100%, the Activity [15] was 92% and the Activity [16] was 100%. For the same molecule, the Activity [17] was 100%, the Activity [18] was 59% and the Activity [19] was 100%. For the same molecule, the Activity [20] was 97%, the Activity [21] was 80% and the Activity [22] was 100%. The Activity [23] was 100%, the Activity [24] was 100% and the Activity [25] was 85%. It also gave an Activity [26] of 100%, an Activity [27] of 100% and an Activity [28] of 88%.
